Key:
[1] = xn = mol fraction of the nth substance listed; settings: 298.15 K, 101 kPa, Liquid; for viscosity: Capillary tube (Ostwald / Ubbelohde) method
[2] = refractive index (Na D-line) (dimensionless); xn = mol fraction of the nth substance listed; settings: 298.15 K, 101 kPa, Liquid
[3] = 298.15 K, 101 kPa, Liquid; for viscosity: Capillary tube (Ostwald / Ubbelohde) method
[4] = refractive index (Na D-line) (dimensionless); settings: 298.15 K; 101.33 kPa; Liquid

CCC(C)O (centres undefined) [butan-2-ol] + CC(=O)c1ccccc1
x2 = 0
Settings | mass density [kg/m3] | refractive index | viscosity [mPa·s]
[1] | 802.56 | – | 3.132
[2] | – | 1.3946 | –

CC(=O)c1ccccc1 [acetophenone] + CC(C)O
Settings | mass density, [1] [kg/m3] | refractive index, [2] | viscosity, [1] [mPa·s]
x1 = 0.0892 | 813.69 | 1.3971 | 1.678
x1 = 0.1658 | 839.2 | 1.4181 | 1.503
x1 = 0.2517 | 865.44 | 1.4393 | 1.399
x1 = 0.3432 | 890.91 | 1.4601 | 1.354
x1 = 0.4297 | 913.04 | 1.4775 | 1.352
x1 = 0.5345 | 937.56 | 1.4953 | 1.367
x1 = 0.6466 | 961.31 | 1.5099 | 1.421
x1 = 0.7561 | 982.35 | 1.5195 | 1.484
x1 = 0.8635 | 1001.26 | 1.5255 | 1.556
x1 = 0.9568 | 1016.5 | 1.5276 | 1.626
x1 = 1 | 1023.3 | 1.5308 | 1.678

CC(=O)c1ccccc1 [acetophenone] + CCCCC(C)O
x1 = 1
Settings | mass density [kg/m3] | refractive index | viscosity [mPa·s]
[1] | 1023.3 | – | 1.678
[2] | – | 1.5308 | –

CC(=O)c1ccccc1 [acetophenone] + CCCCCC(C)O
x1 = 1
Settings | mass density [kg/m3] | refractive index | viscosity [mPa·s]
[1] | 1023.3 | – | 1.678
[2] | – | 1.5308 | –

CCCCC(C)O (centres undefined) [2-hexanol] + CC(=O)c1ccccc1
Settings | mass density, [1] [kg/m3] | refractive index, [2] | viscosity, [1] [mPa·s]
x2 = 0 | 810.14 | 1.4116 | 4.1
x2 = 0.0902 | 827.84 | 1.4485 | 3.193
x2 = 0.1678 | 843.27 | 1.4782 | 2.658
x2 = 0.2536 | 860.63 | 1.5037 | 2.16
x2 = 0.34 | 878.39 | 1.5247 | 1.802
x2 = 0.4382 | 898.86 | 1.5425 | 1.506
x2 = 0.5395 | 920.38 | – | 1.344
x2 = 0.6451 | 943.23 | – | 1.273
x2 = 0.75 | 966.34 | – | 1.313
x2 = 0.8628 | 991.72 | 1.5505 | 1.399
x2 = 0.9511 | 1011.93 | 1.5394 | 1.556

CC(C)O [propan-2-ol]
Settings | mass density [kg/m3] | refractive index | viscosity [mPa·s]
[3] | 780.98 | – | 2.044
[4] | – | 1.3745 | –

CC(=O)c1ccccc1 [acetophenone]
Settings | mass density [kg/m3] | refractive index | viscosity [mPa·s]
[3] | 1023.3 | – | 1.678
[4] | – | 1.5308 | –

CCCCCC(C)O (centres undefined) [2-heptanol]
Settings | mass density [kg/m3] | refractive index | viscosity [mPa·s]
[3] | 813.33 | – | 5.33
[4] | – | 1.4188 | –

CC(C)O [propan-2-ol] + CC(=O)c1ccccc1
x2 = 0
Settings | mass density [kg/m3] | refractive index | viscosity [mPa·s]
[1] | 780.98 | – | 2.044
[2] | – | 1.3745 | –
